Experimental data from patent US10071082B2, “Antimicrobial agents” (Rutgers, The State University of New Jersey, priority 2013, dated 2018).
≈ marks a conversion by molar mass, not a printed value. Where two headings read alike, the source gives them in different places.

How the values were obtained:
MSSA = assay: Test A antibacterial assay, broth microdilution MIC; assay type: cell-based; conditions: Staphylococcus aureus, read-out: MIC MSSA
Procedure: (§1) Antibacterial activity can be determined as per Clinical and Laboratory Standards Institute (CLSI) guidelines using a broth microdilution assay in which log-phase bacteria are grown at 37° C. in appropriate medium containing two-fold serial dilutions of a compound to yield final concentrations ranging from 256 to 0.06 μg/mL. For determination of minimal inhibitory concentration (MIC) values, bacterial growth is monitored after 24 to 48 hours by measuring optical density at 600 nm.

MRSA = assay: as above; assay type: cell-based; conditions: Staphylococcus aureus, read-out: MIC MRSA
Procedure: as §1

[1] = MIC determined in the presence of 50% mouse serum
[2] = MIC values may be lower as solubility and aggregate formation may reduce observed activity

SMILES	MIC (MSSA)	MIC (MRSA)	MIC (MSSA; [1])	MIC (MSSA; [2])	MIC (MRSA; [2])
O=CNC(=O)c1c(F)ccc(OCc2nc3cc(Cl)cnc3s2)c1F [Example 3]	0.5 µg/mL (≈ 1.3 µM)	0.5 µg/mL (≈ 1.3 µM)	–	–	–
CN(C)/C=N/C(=O)c1c(F)ccc(OCc2nc3cc(Cl)cnc3s2)c1F [Example 3b, 3-((6-Chlorothiazolo[5,4-b]pyridin-2-yl)methoxy)-N-((dimethylamino)methylene)-2,6-difluorobenzamide]	0.5 µg/mL (≈ 1.22 µM)	1 µg/mL (≈ 2.43 µM)	–	–	–
CC(=O)NC(=O)c1c(F)ccc(OCc2nc3cc(Cl)cnc3s2)c1F [Example 4]	–	–	2 µg/mL	–	–
C/C(=N\C(=O)c1c(F)ccc(OCc2nc3cc(Cl)cnc3s2)c1F)N(C)C [Example 4a, 3-((6-Chlorothiazolo[5,4-b]pyridin-2-yl)methoxy)-N-(1-(dimethylamino)ethylidene)-2,6-difluorobenzamide]	4 µg/mL (≈ 9.41 µM)	4 µg/mL (≈ 9.41 µM)	–	–	–
CN1CCC(C(=O)NC(=O)c2c(F)ccc(OCc3nc4cc(Cl)ccc4s3)c2F)CC1 [Example 8]	0.5 µg/mL (≈ 1.04 µM)	0.5 µg/mL (≈ 1.04 µM)	–	–	–
CC1CCN(CC(=O)NC(=O)c2c(F)ccc(OCc3nc4cc(Cl)ccc4s3)c2F)CC1 [Example 11]	0.5 µg/mL (≈ 1.01 µM)	1 µg/mL (≈ 2.02 µM)	–	–	–
O=C(NC(=O)c1c(F)ccc(OCc2nc3cc(Cl)ccc3s2)c1F)c1ccc(CCl)cc1 [Example 13]	–	–	4 µg/mL	–	–
O=C(c1c(F)ccc(OCc2nc3cc(Cl)ccc3s2)c1F)N(C(=O)C(F)(F)F)C(=O)C(F)(F)F [Example 14]	–	–	2 µg/mL	–	–
O=C(NC(=O)c1c(F)ccc(OCc2nc3cc(Cl)ccc3s2)c1F)c1c(Cl)ccnc1Cl [Example 18]	> 64 µg/mL	> 64 µg/mL	–	–	–
O=C(NC(=O)c1c(F)ccc(OCc2nc3cc(Cl)ccc3s2)c1F)c1ccnc(Cl)c1Cl [Example 19]	> 64 µg/mL	4 µg/mL (≈ 7.56 µM)	–	–	–
O=C(Cc1ccccc1)NC(=O)c1c(F)ccc(OCc2nc3cc(Cl)ccc3s2)c1F [Example 21]	> 64 µg/mL	2 µg/mL (≈ 4.23 µM)	–	–	–
CC(C(=O)NC(=O)c1c(F)ccc(OCc2nc3cc(Cl)ccc3s2)c1F)c1ccccc1 (stereo not drawn) [Example 23]	> 64 µg/mL	2 µg/mL (≈ 4.11 µM)	–	–	–

The remaining lines, values ahead:

MIC (MSSA)	MIC (MRSA)	MIC (MSSA; [1])	MIC (MSSA; [2])	MIC (MRSA; [2])	SMILES
0.25 µg/mL (≈ 0.653 µM)	0.125 µg/mL (≈ 0.327 µM)	–	–	–	O=CNC(=O)c1c(F)ccc(OCc2nc3cc(Cl)ccc3s2)c1F [Example 1]
0.125 µg/mL (≈ 0.305 µM)	0.125 µg/mL (≈ 0.305 µM)	–	–	–	CN(C)/C=N/C(=O)c1c(F)ccc(OCc2nc3cc(Cl)ccc3s2)c1F [Example 1b, 3-((5-Chlorobenzo[d]thiazol-2-yl)methoxy)-N-((dimethylamino)methylene)-2,6-difluorobenzamide]
2 µg/mL (≈ 5.04 µM)	4 µg/mL (≈ 10.1 µM)	–	–	–	CC(=O)NC(=O)c1c(F)ccc(OCc2nc3cc(Cl)ccc3s2)c1F [Example 2]
2 µg/mL (≈ 4.72 µM)	4 µg/mL (≈ 9.44 µM)	–	–	–	C/C(=N\C(=O)c1c(F)ccc(OCc2nc3cc(Cl)ccc3s2)c1F)N(C)C [Example 2a, 3-((5-Chlorobenzo[d]thiazol-2-yl)methoxy)-N-(1-(dimethylamino)ethylidene)-2,6-difluorobenzamide]
–	–	–	0.5 µg/mL (≈ 1.18 µM)	1 µg/mL (≈ 2.35 µM)	CCCC(=O)NC(=O)c1c(F)ccc(OCc2nc3cc(Cl)ccc3s2)c1F [Example 6]
–	–	–	0.5 µg/mL (≈ 1.08 µM)	–	O=C(NC(=O)C1CCCCC1)c1c(F)ccc(OCc2nc3cc(Cl)ccc3s2)c1F [Example 7]
–	–	–	0.5 µg/mL (≈ 1.09 µM)	–	O=C(NC(=O)c1c(F)ccc(OCc2nc3cc(Cl)ccc3s2)c1F)c1ccccc1 [Example 9]
0.125 µg/mL (≈ 0.29 µM)	0.25 µg/mL (≈ 0.58 µM)	–	–	–	O=C(CCl)NC(=O)c1c(F)ccc(OCc2nc3cc(Cl)ccc3s2)c1F [Example 10]
0.125 µg/mL (≈ 0.27 µM)	0.25 µg/mL (≈ 0.54 µM)	–	–	–	O=C(Cn1ccnc1)NC(=O)c1c(F)ccc(OCc2nc3cc(Cl)ccc3s2)c1F [Example 12]
8 µg/mL (≈ 18.5 µM)	8 µg/mL (≈ 18.5 µM)	–	–	–	CS(=O)(=O)NC(=O)c1c(F)ccc(OCc2nc3cc(Cl)ccc3s2)c1F [Example 15]
2 µg/mL (≈ 5.2 µM)	2 µg/mL (≈ 5.2 µM)	–	–	–	O=C(NCO)c1c(F)ccc(OCc2nc3cc(Cl)ccc3s2)c1F [Example 16]
> 64 µg/mL	4 µg/mL (≈ 9.11 µM)	–	–	–	CC(C)(C)C(=O)NC(=O)c1c(F)ccc(OCc2nc3cc(Cl)ccc3s2)c1F [Example 20]
0.5 µg/mL (≈ 1.14 µM)	2 µg/mL (≈ 4.58 µM)	–	–	–	O=C(NC(=O)C1CCC1)c1c(F)ccc(OCc2nc3cc(Cl)ccc3s2)c1F [Example 22]
